{"source": "patent EP0006352A1", "about": "“Hydantoins and thiohydantoins, process for their preparation and pharmaceutical compositions containing them” (BEECHAM GROUP PLC, priority 1978, dated 1980)", "key": {"[1]": {"test_system": "bronchoconstriction induced by an histamine aerosol", "test": "Protection of conscious guinea-pigs against histamine aerosol induced bronchoconstriction (Herxheimer test)", "format": "in vivo", "conditions": "10 gg/ml by aerosol", "protocol": "(b) The Compounds were also examined for their ability to protect conscious guinea-pigs against bronchoconstriction induced by an histamine aerosol (Herxheimer test). The Compounds were administered by aerosol.\nThe aerosol was produced in the following manner.\nWater soluble compounds were dissolved in normal saline at a concentration of 1 mg/ml. Water insoluble compounds were dissolved in ethanol at a concentration of 10 mg/ml. These solutions were then diluted to the test concentrations with normal saline."}, "[2]": {"test_system": "5-hydroxytryptamine induce bronchoconstriction", "test": "Inhibition of 5-hydroxytryptamine induced bronchoconstriction in the anaesthetised, artificially respired guinea-pig (Konzett-Rossler preparation)", "format": "in vivo", "conditions": "Cavia porcellus, iv", "text": "(a) The Compounds were examined for their ability to inhibit 5-hydroxytryptamine induce bronchoconstriction in the anaesthetised, artificially respired guinea-pig (Konzett-Rossler preparation)."}}, "data": [{"compound": "CCCCCCC(C)(O)CCN1C(=O)N(CC#N)C(=O)C1CC=CCCCC(=O)OCC", "note": "(stereo not drawn) [Compound 2, 1-(3'-hydroxy-3'-methyl-n-nonyl)-3-cyanomethyl-5-(6\"-ethoxycarbonyl-n-hex-2\"-enyl) hydantoin]", "values": [{"measurement": "increase in pre-convulsive coughing time", "setting": "[1]; 2 minutes after dosing", "result": 178, "unit": "%"}, {"measurement": "increase in pre-convulsive coughing time", "setting": "[1]; after 10 minutes", "result": 39, "unit": "%"}, {"measurement": "ED50", "setting": "[2]", "result": 1.1, "unit": "µg/kg"}]}]}
